Reference: the METLIN SMRT retention time set (Domingo-Almenara et al. 2019)

experiment: gradient 5% acetonitrile 3 min, to 50% in 2 min, to 85% in 15 min, held 3 min, 100 µL/min; conditions: column: Zorbax Extend-C18 2.1 x 50 mm; eluents: water / acetonitrile, 0.1% formic acid
How it was run: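 Using water and acetonitrile that each contained 0.1% formic acid, mixtures of ~100 pure standards were separated at 100 μL/min on a Zorbax Extend-C18 column (2.1 × 50 mm, 1.8 μm). The HPLC fed a quadrupole time-of-flight mass spectrometer working in positive and negative ionization mode, with dead and dwell volumes of 40 μL and 900 μL. Data were acquired over 3 months. Retention time was read from computationally picked adduct peaks after manual inspection of each.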

Compound | RP-LC retention time
O=C(Nc1ccc2c(c1)OCCO2)N1CCC(Cc2noc(C3CCOCC3)n2)C1 (configuration not stated) | 698 s
O=C(Nc1cccc(Cl)c1)N1CCC(n2cnnc2C2CC2)C1 (configuration not stated) | 658 s
O=C(Nc1cccc(F)c1)C1CCc2nc(N3CCOCC3)ncc2C1 (configuration not stated) | 778 s
CC(C)CC(=O)Nc1ccc2c(c1)nc(CN1CCN(C(=O)c3ccco3)CC1)n2C | 620 s
COc1ccc2c(c1)C1(CCN(S(=O)(=O)c3ccc(C)cc3)C1)C(=O)N2 (configuration not stated) | 843 s
COc1ccc(C2CC(=O)N(c3ccc(C(C)C)cc3)C(=O)C2)cc1 | 1030 s
O=C(CCS(=O)(=O)c1ccccc1)N1CC(c2nc(-c3cnccn3)no2)C1 | 606 s
O=C(CCCc1ccccc1)N1CCC(c2noc(-c3cnccn3)n2)C1 (configuration not stated) | 776 s
Cc1cccc(Cc2c(C)nc3c(C(=O)O)cnn3c2C)c1 | 788 s
CCSc1ccc(Cc2nnc(NC(=O)c3ccc(S(=O)(=O)N(C)C)cc3)o2)cc1 | 819 s
CN(C)C/C=C/C(=O)Nc1ccc(C(=O)Nc2cccc(Nc3ncc(Cl)c(-c4c[nH]c5ccccc45)n3)c2)cc1 | 800 s
COc1ccc2cc(C(=O)N3CCN(c4cc(=O)n(C)c(=O)n4C)CC3)[nH]c2c1 | 673 s
CCCN(CCC)C1COc2cccc(OC)c2C1 (configuration not stated) | 722 s
O=C(NCCCN1CCOCC1)c1ccc(-c2c(-c3ccc(F)cc3)ncn2C2CCCC2)o1 | 590 s
Cc1nn(-c2ccccc2)c(C)c1S(=O)(=O)N1CCC(C(=O)Nc2cccc(Cl)c2C)CC1 | 1000 s
Cc1ccc(CSc2nccc3c2ccn3CC(=O)NCc2cccnc2)cc1 | 823 s
CCN1CCN(C(=O)Cc2c(C)nc3nc(-c4ccc(C(C)(C)C)cc4)nn3c2C)CC1 | 673 s
C=C1[C@@H](C)[C@H]2[C@H](Cc3ccccc3)NC(=O)C23[C@H](OC(C)=O)/C=C/[C@](C)(O)C(=O)[C@@H](C)C/C=C/[C@H]3[C@@H]1O (some centres not stated) | 801 s
CCOC(=O)c1noc2nc(C)nc(N3CCN(c4ccc(Cl)cc4)CC3)c12 | 1190 s
O=C(Cc1ccc(Cl)cc1)N1CCN(c2ccc(Nc3ccccn3)nn2)CC1 | 603 s
CCCNC(=O)Cc1c(C)nn(-c2nc(-c3ccc(Cl)cc3)cs2)c1C | 1110 s
O=C(Cn1nc2c(c1NC(=O)c1cnccn1)CSC2)NCc1ccco1 | 664 s

Compound | RP-LC retention time
COc1ccc(S(=O)(=O)N2CC3CN(C(=O)C4CCCCC4)CC(C2)O3)cc1 | 850 s
O=C(NC1CCS(=O)(=O)C1)C1CCN(c2cnn(Cc3ccccc3)c(=O)c2)C1 (configuration not stated) | 662 s
CN1Cc2ccccc2-n2ccnc2C12CCN(C(=O)c1cccc(C(F)(F)F)c1)CC2 | 594 s
CCNC(=O)C1CCN(c2cc(SCC(=O)Nc3ccccc3OCC)ncn2)CC1 | 760 s
COc1ccc(CN2CC3(CCN(S(=O)(=O)c4cccnc4)CC3)C2=O)cc1 | 750 s
COc1cc(OC)cc(C(=O)N(C)CCc2noc(C3CCCCC3)n2)c1 | 926 s
COCCN1C(=O)CCc2cc(NS(=O)(=O)c3ccc4c(c3)CCC4)ccc21 | 854 s
CC1Oc2ccc(-c3csc(NC(=O)c4cccc(Br)c4)n3)cc2N(C)C1=O (configuration not stated) | 960 s
CC(C)n1cnc(S(=O)(=O)N2CCCC(C(=O)NCc3ccc(Cl)cc3)C2)c1 (configuration not stated) | 799 s
CC(C)CC(=O)Nc1ccc(S(=O)(=O)N2CCCC2c2nc(-c3ccccc3)no2)cc1 (configuration not stated) | 1080 s
CCCCC(=O)N(Cc1ccc(-c2ccccc2-c2nn[nH]n2)cc1)[C@H](C(=O)O)C(C)C | 865 s
CCOc1ccc(-c2cc3c(=O)n(Cc4nc(-c5ccc(SC)cc5)no4)ncn3n2)cc1 | 1210 s
Cc1cccc(NC(=O)CSc2cc(N3CCN(c4ccccc4F)CC3)ncn2)c1C | 1130 s
COc1ccc(-c2nnc(-c3ccc(OC)c(S(=O)(=O)N4CCCCCC4)c3)o2)cc1OC | 979 s
CCn1nc(CNC(=O)C2CCC2)c2ccccc21 | 748 s
CCc1noc2nc(C)n(CC(=O)NCCC3=CCCCC3)c(=O)c12 | 908 s
CCc1nc2cc(N3CCC(C(=O)Nc4ccccc4OC)CC3)cnc2nc1CC | 942 s
Cc1ccc(-c2cc(C(=O)NC3CCC(C)CC3)c(C)[nH]2)cc1 (configuration not stated) | 1050 s
CCOc1ccccc1NC(=O)N1CCc2nc(-c3ccc(OC)cc3)ncc2C1 | 1000 s
N#Cc1cccc(CN2CCCC2c2nc(-c3ccccc3)n[nH]2)c1 (configuration not stated) | 616 s
COc1ccc(C(=O)NC2c3ccccc3-c3ccccc32)cc1OC | 861 s
CCn1ccc(C(=O)N2CCN(C(=O)N3C[C@H]4C[C@H](C3)[C@H]3CCCC(=O)N3C4)CC2)n1 | 609 s

Compound | RP-LC retention time
CCN(CC)S(=O)(=O)N1CCC(C(=O)NCc2ccc(OC)cc2)CC1 | 795 s
CCc1ccc2[nH]c3c(c(=O)c2c1)CN(CC(=O)Nc1cc(OC)cc(OC)c1)CC3 | 642 s
Cc1csc(-n2nc(C)c(CC(=O)Nc3ccccc3Cl)c2C)n1 | 1010 s
O=S(=O)(c1ccc(Cl)c(-c2nnc(-c3ccccc3)o2)c1)N1CCSCC1 | 1070 s
COc1ccc(N2C(=O)NC3CC2(C)Oc2ccc(OC)cc23)cc1 (configuration not stated) | 765 s
CC(C)C(=O)Nc1ccc2c(c1)N(C(=O)c1ccco1)CCC2 | 743 s
CC(C)CNC(=O)N(C)Cc1nc2cc(C(=O)NC(C)C)ccc2n1C | 593 s
Cc1nc(-c2csc(S(=O)(=O)N3CCC(C(=O)Nc4ccc5c(c4)OCCO5)CC3)c2)no1 | 868 s
CCOC(=O)c1ccccc1NC(=O)N1CCSc2nc(C)cc(C)c21 | 1000 s
Cc1ccc2nc(-c3c(F)cccc3Cl)c(Nc3ccc4c(c3)OCO4)n2c1 | 700 s
Cc1ccccc1N1CCN(C(=O)c2csc(C(=O)NC3CC3)n2)CC1 | 884 s
COC(=O)c1cc(C2CC2)nc2c1c(=O)n(Cc1ccc(Cl)cc1)c(=O)n2C | 1180 s
COc1cccc(OC)c1C(=O)N1CCCC1c1cc(C(C)C)on1 (configuration not stated) | 794 s
CCn1ccc2sc(C)c(C(=O)NCc3cc(C)ccc3C)c2c1=O | 959 s
Cc1ccc(C)c(NC(=O)N2C[C@H](c3nc(-c4cccnc4)no3)[C@@H](C)C2)c1 | 794 s
Cc1noc(-c2ccnc(-n3cnc(C(=O)NCCC(C)C)c3)c2)n1 | 849 s
Fc1ccc(Nc2ncnc3nc[nH]c23)cc1 | 582 s
O=C(CCCN1C(=O)C(c2ccccc2)Oc2cccnc21)NCCCN1CCOCC1 (configuration not stated) | 615 s
O=C(Cc1csc2nc(-c3ccccc3)cn12)NCc1ccccc1Cl | 832 s
COc1cc(Cl)ccc1-c1nc(-c2cccc(-c3ccn[nH]3)c2)no1 | 1060 s
CC(C)Oc1ccc(CNC(=O)C2CCCN(c3nn4c(=O)c5c(nc4s3)CCCC5)C2)cc1 (configuration not stated) | 844 s
O=C(CSc1nnc2c3cc(-c4ccccc4)nn3ccn12)Nc1ccccc1Br | 908 s

Compound | RP-LC retention time
O=C(Cn1cnc2cc3c(cc21)OCCO3)Nc1ccc2c(c1)OCCCO2 | 622 s
O=C(CN1C(=O)CC(c2ccccc2)S(=O)(=O)c2ccccc21)Nc1ccccc1F (configuration not stated) | 871 s
Cc1ccc(CNC(=O)N2CCC(N3CCN(Cc4cccc(F)c4)C(=O)C3=O)CC2)cc1 | 757 s
Cc1ccccc1-c1noc(-c2cccn(CC(=O)N3CCCC3)c2=O)n1 | 750 s
COC(=O)c1ccc(C(=O)Nc2nc3c(s2)CCc2ccccc2-3)cc1 | 1120 s
Cc1ccc(NC(=O)Cc2nnc(-c3cnccn3)o2)cc1 | 698 s
O=C(CCNc1c(-c2ccc(F)cc2)nc2cnccn12)NCc1ccc2c(c1)OCO2 | 716 s
Cc1ccc(N2CCN(c3nccn4c(=O)n(CC(=O)Nc5ccc(C)c(C)c5)nc34)CC2)cc1 | 1000 s
Cc1ccc(NCCCc2ccccc2)c(N)c1 | 728 s
Cn1c(=O)c(SCC(=O)NCc2ccccc2F)nc2ccccc21 | 785 s
O=C(NCCc1csc(-c2cccs2)n1)C1CCN(C(=O)COc2ccccc2)CC1 | 783 s
COc1ccc(CN2CCCN(c3cc(-c4ccccc4)[nH]n3)CC2)c(O)c1 | 620 s
Cc1ccc(-c2cc(NC(=O)C3CC3)on2)s1 | 869 s
O=C(CN1CCN(C(=O)Nc2ccc(Br)cc2)CC1=O)NC1CCCCC1 | 735 s
O=C(CN1C(=O)C(C(=O)N2CCCC2)Sc2ccccc21)NCc1ccccc1 (configuration not stated) | 870 s
CCCc1nc(-c2c(C)cc(C)nc2NC(=O)c2cc(C)ccc2C)no1 | 946 s
O=C(O)CCc1csc(NC(=O)Nc2ccc(Cl)cc2)n1 | 717 s
CCCc1noc(-c2cccnc2N2CCCN(Cc3cc(C)ccc3C)CC2)n1 | 790 s
CNC(=O)[C@@H]1CN(C(=O)Cn2c(=O)oc3ccccc32)C[C@H]1COC | 594 s
CCCNC(=O)C1CCN(c2cc(SCC(=O)Nc3cccc(CC)c3)ncn2)CC1 | 810 s
CN1C(=O)CC[C@]2(CNC(=O)COc3cccc(Cl)c3)CCC[C@@H]12 | 727 s
